# According to article PMC10592247 (Molecular cancer therapeutics, 2023):
# Key:
# [1] = test system: 22Rv1 cells; experiment: Dextran uptake assay; assay type: cell-based; conditions: 2µM for 30min before assay, TMR-dextran 1 mg/mL 30min
# [2] = test system: LNCaP-abl cells; experiment: Cell viability after pre-incubation with endocytosis pathway inhibitors; assay type: cell-based; conditions: EIPA 50µM 30min, then compound 10µM, PrestoBlue after 3 days, n=2
SMILES,macropinocytosis (TMR-dextran uptake) [1],antiproliferative activity after EIPA pre-incubation [2]
"CC(C)(C)C(=O)Nc1ccc2c(c1)C(=O)C(=O)c1ccccc1-2 [SF16170, SF1670]",enhanced macropinocytosis,
"CNC(=O)c1ccc(N2C(=S)N(c3ccc(C#N)c(C(F)(F)F)c3)C(=O)C2(C)C)cc1F [enzalutamide, Enzalutamide]",,did not affect
"C#C[C@]1(O)CC[C@H]2[C@@H]3CCC4=CC(=O)CC[C@]4(C)[C@H]3CC[C@@]21C [ethisterone, Ethisterone]",,did not affect
